Data reported in patent publication US8895572B2, “Fused heterocyclic indane carboxamide CGRP receptor antagonists” (Merck Sharp & Dohme Corp., priority 2010, dated 2014).

Molecular target: T1, recombinant human CL receptor/RAMP1 (Homo sapiens, UniProt O60894+Q16602)
T1 construct: expressed in transfected cells; membranes used
Assay: Recombinant receptor binding assay (125I-hCGRP)
Details: membranes of HEK 293 cells expressing human CL receptor/RAMP1, 10 pM 125I-hCGRP, 3 h at room temperature
Procedure: Human CL receptor (Genbank accession number L76380) was subcloned into the expression vector pIREShyg2 (BD Biosciences Clontech) as a 5′NheI and 3′ PmeI fragment. Human RAMP1 (Genbank accession number AJ001014) was subcloned into the expression vector pIRESpuro2 (BD Biosciences Clontech) as a 5′NheI and 3′NotI fragment. HEK 293 cells (human embryonic kidney cells; ATCC #CRL-1573) were cultured in DMEM with 4.5 g/L glucose, 1 mM sodium pyruvate and 2 mM glutamine supplemented with 10% fetal bovine serum (FBS), 100 units/mL penicillin and 100 μg/mL streptomycin, and maintained at 37° C. and 95% humidity. Cells were subcultured by treatment with 0.25% trypsin with 0.1% EDTA in HBSS. Stable cell line generation was accomplished by co-transfecting 10 μg of DNA with 30 μg Lipofectamine 2000 (Invitrogen) in 75 cm^2 flasks. CL receptor and RAMP1 expression constructs were co-transfected in equal amounts. Twenty-four hours after transfection the cells were diluted and selective medium (growth medium+300 μg/mL hygromycin and 1 μg/mL puromycin) was added the following day. A clonal cell line was generated by single cell deposition utilizing a FACS Vantage SE (Becton Dickinson). Growth medium was adjusted to 150 μg/mL hygromycin and 0.5 μg/mL puromycin for cell propagation.
Cells expressing recombinant human CL receptor/RAMP1 were washed with PBS and harvested in harvest buffer containing 50 mM HEPES, 1 mM EDTA and Complete™ protease inhibitors (Roche). The cell suspension was disrupted with a laboratory homogenizer and centrifuged at 48,000 g to isolate membranes. The pellets were resuspended in harvest buffer plus 250 mM sucrose and stored at […]. For binding assays, 20 μg of membranes were incubated in 1 mL binding buffer (10 mM HEPES, pH 7.4, 5 mM MgCl2, and 0.2% BSA) for 3 h at room temperature containing 10 pM ^125I-hCGRP (GE Healthcare) and antagonist. The assay was terminated by filtration through 96-well GFB glass fiber filter plates (PerkinElmer) that had been blocked with 0.05% polyethyleneimine. The filters were washed 3 times with ice-cold assay buffer (10 mM HEPES, pH 7.4, and 5 mM MgCl2). Scintillation fluid was added and the plates were counted on a Topcount (Packard). Non-specific binding was determined and the data analysis was carried out with the apparent dissociation constant (Ki) determined by using a non-linear least squares fitting the bound CPM data to the equation below:
[formula] Where Y is observed CPM bound, Ymax is total bound counts, Ymin is non specific bound counts, (Ymax−Ymin) is specific bound counts, % Imax is the maximum percent inhibition, % 1 min is the minimum percent inhibition, radiolabel is the probe, and the Kd is the apparent dissociation constant for the radioligand for the receptor as determined by hot saturation experiments.

T1 sequence (Q16602 23-461): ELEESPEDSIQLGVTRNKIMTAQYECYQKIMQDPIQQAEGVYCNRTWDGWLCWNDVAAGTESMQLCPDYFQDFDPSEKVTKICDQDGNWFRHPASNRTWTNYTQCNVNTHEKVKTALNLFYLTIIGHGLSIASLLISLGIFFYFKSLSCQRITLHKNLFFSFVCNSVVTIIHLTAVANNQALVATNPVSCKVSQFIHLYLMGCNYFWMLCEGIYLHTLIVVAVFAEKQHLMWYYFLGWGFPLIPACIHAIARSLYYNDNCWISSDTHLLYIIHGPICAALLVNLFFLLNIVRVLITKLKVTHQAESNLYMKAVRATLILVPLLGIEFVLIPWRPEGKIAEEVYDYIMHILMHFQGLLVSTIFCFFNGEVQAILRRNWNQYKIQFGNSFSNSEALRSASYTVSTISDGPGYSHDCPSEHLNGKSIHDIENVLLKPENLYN
T1 sequence (O60894 27-148): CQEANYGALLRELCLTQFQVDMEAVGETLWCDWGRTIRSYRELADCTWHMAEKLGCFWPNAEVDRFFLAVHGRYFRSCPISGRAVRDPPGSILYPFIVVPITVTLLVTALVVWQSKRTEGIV

Ki [nM] | Structure (SMILES)
0.07 | O=C(N[C@H]1C[C@@H](c2cccc(F)c2F)Cn2c(CC(F)(F)F)cnc21)c1ccc2c(c1)C[C@@]1(C2)C(=O)Nc2ncccc21 [Example 1.2, (2R)—N-[(6S,8S)-6-(2,3-Difluorophenyl)-3-(2,2,2-trifluoroethyl)-5,6,7,8-tetrahydroimidazo[1,2-a]pyridin-8-yl]-2′-oxo-1,1′,2′,3-tetrahydrospiro[indene-2,3′-pyrrolo[2,3-b]pyridine]-5-carboxamide]
0.03 | COC(C)(C)c1cnc2n1C[C@H](c1cccc(F)c1F)C[C@@H]2NC(=O)c1ccc2c(c1)C[C@@]1(C2)C(=O)Nc2ncccc21 [Example 1.8, (2R)—N-[(6S,8S)-6-(2,3-Difluorophenyl)-3-(2-methoxypropan-2-yl)-5,6,7,8-tetrahydroimidazo[1,2-a]pyridin-8-yl]-2′-oxo-1,1′,2′,3-tetrahydrospiro[indene-2,3′-pyrrolo[2,3-b]pyridine]-5-carboxamide]
0.07 | O=C(N[C@H]1C[C@@H](c2cccc(F)c2F)Cn2c(CC(F)(F)F)nnc21)c1ccc2c(c1)C[C@@]1(C2)C(=O)Nc2ncccc21 [Example 1.14, (2R)—N-[(6S,8S)-6-(2,3-Difluorophenyl)-3-(2,2,2-trifluoroethyl)-5,6,7,8-tetrahydr[1,2,4]triazolo[4,3-a]pyridin-8-yl]-2′-oxo-1,1′,2′,3-tetrahydrospiro[indene-2,3′-pyrrolo[2,3-b]pyridine]-5-carboxamide]
0.39 | C[C@@H]1[C@H](c2ccccc2)C[C@H](NC(=O)c2ccc3c(c2)C[C@@]2(C3)C(=O)Nc3ncccc32)c2nnc(C3(C(F)(F)F)CC3)n21 [Example 1.19, (2R)—N-{(5R,6S,8S)-5-Methyl-6-phenyl-3-[1-(trifluoromethyl)cyclopropyl]-5,6,7,8-tetrahydro[1,2,4]triazolo[4,3-a]pyridin-8-yl}-2′-oxo-1,1′,2′,3-tetrahydrospiro[indene-2,3′-pyrrolo[2,3-b]pyridine]-5-carboxamide]
0.27 | C[C@@H]1[C@H](c2ccccc2)C[C@H](NC(=O)c2ccc3c(c2)C[C@@]2(C3)C(=O)Nc3ncccc32)c2ncc(C(C)(C)O)n21 [Example 1.20, (2R)—N-[(5R,6S,8S)-3-(2-Hydroxypropan-2-yl)-5-methyl-6-phenyl-5,6,7,8-tetrahydroimidazo[1,2-a]pyridin-8-yl]-2′-oxo-1,1′,2′,3-tetrahydrospiro[indene-2,3′-pyrrolo[2,3-b]pyridine]-5-carboxamide]
0.19 | C[C@@H]1[C@H](c2ccccc2)C[C@H](NC(=O)c2ccc3c(c2)C[C@@]2(C3)C(=O)Nc3ncncc32)c2ncc(C(C)(C)O)n21 [Example 2.1, (2R)—N-[(5R,6S,8S)-3-(2-Hydroxypropan-2-yl)-5-methyl-6-phenyl-5,6,7,8-tetrahydroimidazo[1,2-a]pyridin-8-yl]-6′-oxo-1,3′,6′,7′-tetrahydrospiro[indene-2,5′-pyrrolo[2,3-d]pyrimidine]-5-carboxamide]
